Assay results: ChEMBL document CHEMBL1201862, “PubChem BioAssay data set” (2004)
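Step 1: Grow cells in 96-well plates. Step 2: Expose to compound for 48 hours at 5 concentrations. Step 3: Interpolate endpoints linearly; if unreached, use highest concentration. At the GI50, growth is halved.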 Active and inactive are the calls of the source. Rule as the data show it: active = GI50 up to about 1.1 µM and inactive = higher. Where a SMILES comes first, the peptide text is derived from it. The star is where a group is joined. Boc = CC(C)(C)OC(=O)*

Legend:
Assay in all cases: inhibition of tumour cell growth, NCI panel, 48 h
[1] = test system: ACHN
[2] = test system: NCI-H226
[3] = test system: SW-620
[4] = test system: BT-549
[5] = test system: CAKI-1
[6] = test system: KM12
[7] = test system: 786-0
[8] = test system: UACC-257
[9] = test system: HCT-15
[10] = test system: HCT-116
[11] = test system: COLO 205
[12] = test system: SF-268
[13] = test system: MDA-N
[14] = test system: OVCAR-3
[15] = test system: SF-295
[16] = test system: DU-145
[17] = test system: Malme-3M
[18] = test system: RPMI-8226
[19] = test system: KM-20L2
[20] = test system: OVCAR-8

SMILES | GI50 [1] | GI50 [2] | GI50 [3] | GI50 [4] | GI50 [5] | GI50 [6] | GI50 [7] | GI50 [8] | GI50 [9] [µM] | GI50 [10] | GI50 [11] | GI50 [12] | GI50 [13] | GI50 [14] | GI50 [15] | GI50 [16] | GI50 [17] | GI50 [18] | GI50 [19] | GI50 [20]
C1CN(c2nnc(N3CCC3)nn2)C1 | > 69.8 µM (inactive) | > 96.6 µM (inactive) | 32.3 µM (inactive) | > 65.9 µM (inactive) | > 94.4 µM (inactive) | > 89.5 µM (inactive) | 34.8 µM (inactive) | 22.9 µM (inactive) | > 100 | 84.5 µM (inactive) | 60.7 µM (inactive) | 90.6 µM (inactive) | 17.3 µM (inactive) | > 92.7 µM (inactive) | 37.3 µM (inactive) | > 100 µM (inactive) | 44.4 µM (inactive) | > 100 µM (inactive) | > 44.8 µM (inactive) | > 100 µM (inactive)
c1ccc2cc(-c3cc4ccccc4s3)ccc2c1 | > 100 µM (inactive) | > 100 µM (inactive) | > 100 µM (inactive) | – | > 100 µM (inactive) | > 100 µM (inactive) | > 100 µM (inactive) | > 100 µM (inactive) | > 100 | > 100 µM (inactive) | > 100 µM (inactive) | > 100 µM (inactive) | – | > 100 µM (inactive) | > 100 µM (inactive) | – | > 100 µM (inactive) | > 100 µM (inactive) | > 100 µM (inactive) | > 100 µM (inactive)
CCn1c(O)c(C(=O)Nc2cccs2)c(=O)n(CC)c1=S | 21.5 µM (inactive) | 25.5 µM (inactive) | 23.2 µM (inactive) | – | 22.6 µM (inactive) | 16.8 µM (inactive) | 19.6 µM (inactive) | 22.7 µM (inactive) | 14 | 19.2 µM (inactive) | 16.8 µM (inactive) | 19.3 µM (inactive) | – | 16.6 µM (inactive) | 11.7 µM (inactive) | – | 19.9 µM (inactive) | 20.4 µM (inactive) | 17.7 µM (inactive) | 14.2 µM (inactive)
CC(=O)CC(=O)CCCC(=O)Nc1ccc(Cl)cc1C | > 100 µM (inactive) | > 100 µM (inactive) | > 100 µM (inactive) | – | > 100 µM (inactive) | > 100 µM (inactive) | > 100 µM (inactive) | > 100 µM (inactive) | > 100 | > 100 µM (inactive) | > 100 µM (inactive) | > 100 µM (inactive) | – | > 100 µM (inactive) | > 100 µM (inactive) | – | > 100 µM (inactive) | > 100 µM (inactive) | > 100 µM (inactive) | > 100 µM (inactive)
COc1ccc(/C(Cl)=C(\C=O)c2cc(OC)c(OC)c(OC)c2)cc1OC | 26.3 µM (inactive) | 19.8 µM (inactive) | > 61.2 µM (inactive) | – | 22.9 µM (inactive) | 24.8 µM (inactive) | 34.4 µM (inactive) | 62.2 µM (inactive) | 19.8 | 36.6 µM (inactive) | 27.5 µM (inactive) | 23.8 µM (inactive) | 12.3 µM (inactive) | 27.7 µM (inactive) | 34.1 µM (inactive) | 44.7 µM (inactive) | 15 µM (inactive) | 10.8 µM (inactive) | 22.8 µM (inactive) | 17.8 µM (inactive)
CC(C)(C)OC(=O)NC(Cc1ccc(O)cc1)C(=O)N1CCCC1C(=O)O (stereo not drawn) (Boc-Tyr-Pro-OH; configuration not given here) | > 100 µM (inactive) | > 100 µM (inactive) | > 100 µM (inactive) | – | > 100 µM (inactive) | > 100 µM (inactive) | > 100 µM (inactive) | > 100 µM (inactive) | > 100 | > 100 µM (inactive) | > 100 µM (inactive) | > 100 µM (inactive) | – | > 100 µM (inactive) | > 100 µM (inactive) | – | > 100 µM (inactive) | > 100 µM (inactive) | > 100 µM (inactive) | > 100 µM (inactive)
S=c1sc2c(n1-c1ccccc1)N=CNC2S (stereo not drawn) | 60.5 µM (inactive) | 44.6 µM (inactive) | > 100 µM (inactive) | – | > 100 µM (inactive) | > 100 µM (inactive) | > 100 µM (inactive) | 48.8 µM (inactive) | 97.3 | 98.4 µM (inactive) | > 100 µM (inactive) | 56.5 µM (inactive) | – | 77.1 µM (inactive) | 84.7 µM (inactive) | – | 44.8 µM (inactive) | 62.2 µM (inactive) | > 100 µM (inactive) | > 100 µM (inactive)
N#Cc1c(NN)nc(NN)c(C#N)c1-c1ccccc1 | > 100 µM (inactive) | 52.8 µM (inactive) | > 100 µM (inactive) | – | > 100 µM (inactive) | > 100 µM (inactive) | > 100 µM (inactive) | > 100 µM (inactive) | > 100 | > 100 µM (inactive) | > 100 µM (inactive) | > 100 µM (inactive) | – | > 100 µM (inactive) | > 100 µM (inactive) | – | > 100 µM (inactive) | > 100 µM (inactive) | > 100 µM (inactive) | > 100 µM (inactive)
c1ccc2c(CNCCCN3CCN(CCCNCc4cccc5ccccc45)CC3)cccc2c1 | 2.75 µM (inactive) | 2.81 µM (inactive) | 1.77 µM (inactive) | – | 1.72 µM (inactive) | 1.96 µM (inactive) | 1.91 µM (inactive) | 1.92 µM (inactive) | 1.8 | 1.51 µM (inactive) | 2.06 µM (inactive) | 2.37 µM (inactive) | – | 2.89 µM (inactive) | 1.77 µM (inactive) | – | 2.06 µM (inactive) | 1.03 µM (active) | 1.7 µM (inactive) | 1.77 µM (inactive)
